Experimental data: US8846709B2, “7-(3,5-dimethyl-4-isoxazolyl)-8-(methyloxy)-1H-imidazo[4,5-C]quinoline derivatives” (GlaxoSmithKline LLC, priority 2011, dated 2014)

Test system: LPS induced IL-6 secretion from whole blood
Experiment: Measurement of LPS Induced IL-6 Secretion from Whole Blood
Format: cell-based
Details: IL-6 in whole blood, LPS 200 ng/ml, 24 hours
Experimental: Activation of monocytic cells by agonists of toll-like receptors such as bacterial lipopolysaccharide (LPS) results in production of key inflammatory mediators including IL-6. Such pathways are widely considered to be central to the pathophysiology of a range of auto-immune and inflammatory disorders.
Compounds to be tested are diluted to give a range of appropriate concentrations of which 1 μl of the diluted stocks is added to a 96 well plate. Following addition of whole blood (130 μl) the plates are incubated at 37 degrees (5% CO2) for 30 min before the addition of 10 μl of 2.8 ug/ml LPS, diluted in complete RPMI 1640 (final concentration=200 ng/ml), to give a total volume of 140 ul per well. After further incubation for 24 hours at 37 degrees, 140 μl of PBS are added to each well. The plates are sealed, shaken for 10 minutes and then centrifuged (2500 rpm×10 min). 100 μl of the supernatant are removed and IL-6 levels assayed by immunoassay (typically by MesoScale Discovery technology) either immediately or following storage at −20 degrees. Concentration response curves for each compound was generated from the data and an IC50 value was calculated

Row | IC50 [µM] | Compound
1 | > 3.16 | COc1cc2c(cc1-c1c(C)noc1C)ncc1nc(NCCN)n(CC3CCOCC3)c12 [Example 8, N1-(7-(3,5-dimethylisoxazol-4-yl)-8-methoxy-1-((tetrahydro-2H-pyran-4-yl)methyl)-1H-imidazo[4,5-c]quinolin-2-yl)ethane-1,2-diamine]
2 | > 3.16 | COc1cc2c(cc1-c1c(C)noc1C)ncc1nc(NCCO)n(CC3CCOCC3)c12 [Example 2, 2-{[7-(3,5-dimethyl-4-isoxazolyl)-8-(methyloxy)-1-(tetrahydro-2H-pyran-4-ylmethyl)-1H-imidazo[4,5-c]quinolin-2-yl]amino}ethanol]
